Measured values: patent publication US6828315B1, “1-Amino triazoloc4,3-a! quinazoline-5-ones and/or -5-thiones inhibiting phosphodiesterase IV” (Warner-Lambert LLC, priority 1999, dated 2004)

Assays:
[1] = target: type 4 phosphodiesterases (PDE4); assay: Inhibition of the phosphodiesterase (PDE4), enzymatic preparation from line U937; type: biochemical; settings: PDE4 from cytosolic preparation of human cell line U937
Method: The capacity of the formula (I) compounds of the invention to inhibit the cyclic nucleotide phosphodiesterases is evaluated by their Cl50 measurement (necessary concentration to inhibit 50% of enzymatic activity).
The type 4 phosphodiesterases are obtained from a cytosolic preparation extracted from the human origin cellular line U937 according to a method adapted from T. J. Torphy and al., 1992, J.Pharm.Exp. Ther. 263: 1195-1205
The other classes of phosphodiesterases are obtained after partial purification FPLC on Mono Q column. (anion exchange column) according to a method adapted from Lavan B. E., Lakey T., Houslay M. D. Biochemical Pharmacology, 1989, 38(22), 4123-4136., and from Silver P. J and al., 1988, Eur.J. Pharmacol. 150: 85-94, either, from human origin cellular lines for PDE 1 (monocytar line TPH1) and PDE5 (line MCF7 issued from an adenocarcinoma), or from dog aorta for PDE 3, or for the human PDE3A, from gene cloning in insect cells SF21 in baculovirus, according to a method adapted from Luckow, V. A. and al., 1991 in Recombinant DNA Technology&Applications.,eds. Prokop, Bajpai,R. K.&Ho,C. S., pp97-152. The enzymatic activity measurement of the different PDE classes, and in particular the PDE 4, is performed according to a method adapted from W. J. Thompson and al. 1979, Advances in Cyclic Nucleotide Research, Vol. 10: 69-92, ed. G. Brooker and al. Raven Press, NY.
For the Cl50 determination, the enzymatic activity is measured in the presence of inhibitor within concentration margins of 0.1 to 100 μM.
The following table illustrates the PDE4 inhibitory activity from enzymatic preparation obtained from the line U937.

| Compound | IC50 [1] [nM] | melting point [°C] |
| --- | --- | --- |
| O=c1c2cc(Cl)ccc2n2c(N3CCCCCC3)nnc2n1CC=Cc1ccccc1 [Compound 1, 1-(Azepan-1-yl)-7-chloro-4-(3-phenylallyl)-4H-[1,2,4]triazolo[4,3-a]quinazolin-5-one] | 54 |  |
| O=c1c2cc(Br)ccc2n2c(N3CCCCC3)nnc2n1CC=Cc1ccccc1 [Compound 76, 1-(piperidin-1-yl)-7-bromo-4-(3-phenylallyl)-4H-[1,2,4]triazolo[4,3-a]quinazolin-5-one] | 70 |  |
| Cc1ccc2c(c1)c(=O)n(Cc1ccc(CC(=O)O)cc1)c1nnc(N(C)C)n21 [Compound 102, [4-(1-Dimethylamino-7-methyl-5-oxo-5H-[1,2,4]triazolo[4,3-a]quinazolin-4-ylmethyl)-phenyl]-acetic acid] | 60 |  |
| O=c1c2cc(Br)ccc2n2c(N3CCCC3)nnc2n1Cc1ccccc1 [Compound 164, 4-benzyl-7-bromo-1-(pyrrolidin-1-yl)-4H-[1,2,4]triazolo[4,3-a]-quinazolin-5-one] | 90 |  |
| Cc1ccc2c(c1)c(=O)n(Cc1ccccc1)c1nnc(N(C)C)n21 [Compound 192, 4-Benzyl-1-dimethylamino-7-methyl-4H-[1,2,4]triazolo[4,3-a]quinazolin-5-one] |  | 186 |
| Cc1ccc2c(c1)c(=O)n(Cc1ccccc1)c1nnc(N3CCSCC3)n21 [Compound 193, 4-Benzyl-7-methyl-1-thiomorpholin-4-yl-4H-[1,2,4]triazolo[4,3-a]quinazolin-5-one] |  | 265 |
| Cc1ccc2c(=O)n(Cc3ccccc3)c3nnc(N4CCCCCC4)n3c2c1 [Compound 194, 1-Azepan-1-yl-4-benzyl-8-methyl-4H-[1,2,4]triazolo[4,3-a]quinazolin-5-one] |  | 202 |
| COc1ccc2c(c1)c(=O)n(Cc1ccccc1)c1nnc(N3CCCCCC3)n21 [Compound 195, 1-Azepan-1-yl-4-benzyl-7-methoxy-4H-[1,2,4]triazolo[4,3-a]quinazolin-5-one] |  | 153 |
| COc1ccc2c(c1)c(=O)n(Cc1ccccc1)c1nnc(N3CCCC3)n21 [Compound 196, 4-Benzyl-7-methoxy-1-pyrrolidin-1-yl-4H-[1,2,4]triazolo[4,3-a]quinazolin-5-one] |  | 154 |
| N#Cc1ccc2c(c1)c(=O)n(Cc1ccccc1)c1nnc(N3CCCC3)n21 [Compound 197, 4-Benzyl-5-oxo-1-pyrrolidin-1-yl-4,5-dihydro-[1,2,4]triazolo[4,3-a]quinazoline-7-carbonitrile] |  | 219 |
| O=c1c2cc([N+](=O)[O-])ccc2n2c(N3CCCCCC3)nnc2n1Cc1ccccc1 [Compound 198, 1-Azepan-1-yl-4-benzyl-7-nitro-4H-[1,2,4]triazolo[4,3-a]quinazolin-5-one] |  | 206 |
| Cn1c(=O)c2ccccc2n2c(N3CCCCCC3)nnc12 [Compound 200, 1-(azepan-1-yl)-4-methyl-4H-[1,2,4]triazolo[4,3-a]quinazolin-5-one] |  | 199 to 203 |
| O=c1c2ccccc2n2c(N3CCCCCC3)nnc2n1Cc1ccccc1 [Compound 201, 1-(azepan-1-yl)-4-benzyl-4H-[1,2,4]triazolo[4,3-a]quinazolin-5-one] |  | 157 |
| Cn1c(=O)c2c(Cl)cccc2n2c(N3CCCCCC3)nnc12 [Compound 202, 1-(azepan-1-yl)-6-chloro-4-methyl-4H-[1,2,4]triazolo[4,3-a]-quinazolin-5-one] |  | > 275 |
| Cn1c(=O)c2cc(Cl)ccc2n2c(N3CCCCCC3)nnc12 [Compound 203, 1-(azepan-1-yl)-7-chloro-4-methyl-4H-[1,2,4]triazolo[4,3-a]-quinazolin-5-one] |  | 145 |
| CCn1c(=O)c2cc(Cl)ccc2n2c(N3CCCCCC3)nnc12 [Compound 204, 1-(azepan-1-yl)-7-chloro-4-ethyl-4H-[1,2,4]triazolo[4,3-a]-quinazolin-5-one] |  | 98 to 100 |
| Cn1c(=O)c2cc(Cl)ccc2n2c(N3CCCC3)nnc12 [Compound 205, 7-chloro-4-methyl-1-(pyrrolidin-1-yl)-4H-[1,2,4]triazolo[4,3-a]-quinazolin-5-one] |  | 203 to 205 |
| Cn1c(=O)c2cc(Cl)ccc2n2c(N3CCOCC3)nnc12 [Compound 206, 7-chloro-4-methyl-1-(morpholin-4-yl)-4H-[1,2,4]triazolo[4,3-a]-quinazolin-5-one] |  | 232 |

| Compound | IC50 [1] [nM] | melting point [°C] |
| --- | --- | --- |
| Cn1c(=O)c2cc(Cl)ccc2n2c(N3CCCCCCC3)nnc12 [Compound 207, 1-(azocan-1-yl)-7-chloro-4methyl-4H-[1,2,4]triazolo[4,3-a]-quinazolin-5-one] |  | 123 to 125 |
| Cn1c(=O)c2cc(Cl)ccc2n2c(N3CCCc4ccccc43)nnc12 [Compound 208, 7-chloro-1-(3,4-dihydro-2H-quinolin-1-yl)-4-methyl-4H-[1,2,4]triazolo[4,3-a]quinazolin-5-one] |  | 204 |
| Cn1c(=O)c2cc(Cl)ccc2n2c(N3CCc4ccccc4C3)nnc12 [Compound 209, 7-chloro-1-(3,4-dihydro-1H-isoquinolin-2-yl)-4-methyl-4H-[1,2,4]triazolo[4,3-a]quinazolin-5-one] |  | 272 |
| Cn1c(=O)c2cc(Cl)ccc2n2c(N3CCC(Cc4ccccc4)CC3)nnc12 [Compound 210, 1-(4-benzylpiperidin-1-yl)-7chloro-4-methyl-4H-[1,2,4]triazolo[4,3-a]quinazolin-5-one] |  | 180 |
| Cn1c(=O)c2cc(Cl)ccc2n2c(N3CC4(C)CC3CC(C)(C)C4)nnc12 (centres unmarked) [Compound 211, 7-chloro-4-methyl-1-(1,3,3-trimethyl-6-azabicyclo[3,2,1]oct-6yl)-4H-[1,2,4]triazolo[4,3-a]-quinazolin-5-one] |  | 165 |
| Cn1c(=O)c2cc(F)ccc2n2c(N3CCCCCC3)nnc12 [Compound 212, 1-(azepan-1-yl)-7-fluoro-4-methyl-4H-[1,2,4]triazolo[4,3-a]-quinazolin-5-one] |  | 136 |
| Cn1c(=O)c2cc(I)ccc2n2c(N3CCCCCC3)nnc12 [Compound 213, 1-(azepan-1-yl)-7-iodo-4-methyl-4H-[1,2,4]triazolo[4,3-a]-quinazolin-5-one] |  | 206 |
| Nc1ccc(Cn2c(=O)c3cc(Br)ccc3n3c(N4CCCC4)nnc23)cc1 [Compound 218, 4-(4-Amino-benzyl)-7-bromo-1-pyrrolidin-1-yl-4H-[1,2,4]triazolo[4,3-a]quinazolin-5-one] | 48 |  |
| Nc1ccc2c(c1)c(=O)n(C/C=C/c1ccccc1)c1nnc(N3CCCC3)n21 [Compound 223, 7-Amino-4-((E)-3-phenyl-allyl)-1-pyrrolidin-1-yl-4H-[1,2,4]triazolo[4,3-a]quinazolin-5-one] | 12 |  |
| Nc1ccc2c(c1)c(=O)n(Cc1ccccc1)c1nnc(N3CCCC3)n21 [Compound 225, 7-Amino-4-benzyl-1-pyrrolidin-1-yl-4H-[1,2,4]triazolo[4,3-a]quinazolin-5-one] |  | 230 |
| N#Cc1ccc(Cn2c(=O)c3cc(N)ccc3n3c(N4CCCC4)nnc23)cc1 [Compound 226, 4-(7-Amino-5-oxo-1-pyrrolidin-1-yl-5H-[1,2,4]triazolo[4,3-a]quinazolin-4-ylmethyl)-benzonitrile] |  | 152 |
| CN(C)c1nnc2n(Cc3ccc(C#N)cc3)c(=O)c3cc(N)ccc3n12 [Compound 228, 4-(7-Amino-1-dimethylamino-5-oxo-5H-[1,2,4]triazolo[4,3-a]quinazolin-4-ylmethyl)-benzonitrile] |  | 163 |
| CC(C)Nc1ccc2c(c1)c(=O)n(Cc1ccccc1)c1nnc(N3CCCC3)n21 [Compound 234, 4-Benzyl-7-isopropylamino-1-pyrrolidin-1-yl-4H-[1,2,4]triazolo[4,3-a]quinazolin-5-one] | 2690 |  |
| COC(=O)Cc1ccc(Cn2c(=O)c3cc(Br)ccc3n3c(N4CCCC4)nnc23)cc1 [Compound 239, [4-(7-Bromo-5-oxo-1-pyrrolidin-1-yl-5H-[1,2,4]triazolo[4,3-a]quinazolin-4-ylmethyl)-phenyl]-acetic acid methyl ester] | 5 |  |
| CNC(=O)Cc1ccc(Cn2c(=O)c3cc(Br)ccc3n3c(N4CCCC4)nnc23)cc1 [Compound 240, 2-[4-(7-Bromo-5-oxo-1-pyrrolidin-1-yl-5H-[1,2,4]triazolo[4,3-a]quinazolin-4-ylmethyl)-phenyl]-N-methyl-acetamide] | 13 |  |
| CN(C)c1nnc2n(Cc3ccc(CC(N)=O)cc3)c(=O)c3cc(Br)ccc3n12 [Compound 241, 2-[4-(7-Bromo-1-dimethylamino-5-oxo-5H-[1,2,4]triazolo[4,3-a]quinazolin-4-ylmethyl)-phenyl]-acetamide] |  | 268 |
| CN(C)c1nnc2n(Cc3ccc(C#N)cc3)c(=S)c3cc(Br)ccc3n12 [Compound 245, 4-(7-Bromo-1-dimethylamino-5-thioxo-5H-[1,2,4]triazolo[4,3-a]quinazolin-4-ylmethyl)-benzonitrile] |  | 276 |
